Here are results for two molecules from PMC10791743, “Selective CK1α degraders exert antiproliferative activity against a broad range of human cancer cell lines” (Nature Communications, 2024).

One may read the AUC(0-t) as the area under the concentration-time curve up to a stated or last time point. Read a low AUC(0-t) as less exposure. Broadly, the Tmax is the time at which the peak concentration occurs. One may read the bioavailability as dose-corrected exposure relative to a reference, in per cent. A higher bioavailability goes with much systemic uptake. Usually clearance stands for a measure of how efficiently the substance is removed, as volume per time. Read a low clearance as a low capacity for elimination.

Read-outs that look alike come from different tables or passages of the source.

Series [1] is described as follows: Pharmacokinetics in female CD1 mice. Type of series: in vivo, mouse. Particulars: mouse; for half-life: CD1, mouse, plasma. The procedure: Three mice were housed in each cage. […] Temperature and humidity were recorded by an auto-controlled data logger system. All the animals were provided a laboratory rodent diet (Altromin, Germany). Reverse osmosis water treated with ultraviolet light was provided ad libitum. Total 27 mice (n = 9/group) were divided into three groups as Group 1, Group 2, and Group 3 with a sparse sampling design (3 mice/time points). […] The formulation vehicle for IV was 5% v/v NMP, 5% v/v Solutol HS-15 and 90% v/v Normal saline, and for PO & IP was 10%v/v NMP, 10%v/v Solutol HS-15. 50%v/v PEG-400 and 30%v/v HPβCD (20%w/v) in saline. […] Immediately after blood collection, plasma was harvested by centrifugation at 12,300×g, 10 min at 4 °C and samples were stored at −70 ± 10 °C until bioanalysis. Concentrations of SJ3149 in mouse plasma samples were determined by fit-for-purpose LC–MS/MS method. Non-Compartmental-Analysis tool of Phoenix WinNonlin® (Version 8.3) was used to assess the pharmacokinetic parameters. Peak plasma concentration (Cmax) and time for the peak plasma concentration (Tmax) were the observed values. The area under the concentration–time curve (AUClast) was calculated by the linear trapezoidal rule. The terminal elimination rate constant, ke was determined by regression analysis of the linear terminal portion of the log plasma concentration-time curve. Clearance was estimated as Dose/AUCinf and Vss as CL*MRT.

Series [2] can be described thus: Liver microsomes stability assay, mouse. Type of series: in vitro ADME. Here is the method: page 31: using a REMS Autosampler (World Precision Instruments, Sarasota, […]1 cells were grown for 5 days to reach a consistent confluency level monitored by epithelial voltohmmeter to confirm the intactness of the confluent polarized monolayer. For transport experiments, each cultured monolayer on the 96-well plate was washed twice with a transport buffer (HBSS/25 mM […] The cell-based permeability assay was initiated by the addition of each compound solution (10 μmol/L) into inserts (apical side, A) or receivers (basolateral side, B). After incubated […] (if basal to apical permeability), and concentrations were assessed by UPLC/MS (Waters; Milford, MA). All compounds were tested in triplicates. The A→B (or B→A) apparent permeability coefficients (Papp) of each compound were calculated using the equation (3): […], where dQ/dt equals the flux of a drug across the monolayer, the parameters of A equals the surface area of total insert well, and C0 is the initial concentration of substrate in the donor compartment. The efflux ratio was determined by dividing the Papp in the B-A direction by the Papp in the A-B direction. […] NADPH regenerating agent solutions A and B (Corning GentestTM, Cat. No: 451220) were purchased from Discovery Labware (Woburn, MA). Mouse liver microsomes (CD-1, pooled, GibcoTM, Cat. No: MSMCPL) were obtained from Thermo Fisher Scientific (Fredrick, MD). Pooled human liver microsomes (mixed gender, Cat. No: E0630) were purchased from XenoTech (Lenexa, KS). Stock solutions of test compounds were prepared at 10 mM in DMSO. Sample preparation for microsomal stability was modified from Di's publications3,4. […] and 4 hours) by Labcyte Echo 650 acoustic dispenser (Beckman Coulter Life Sciences, Indianapolis, IN). All compounds were tested in triplicate per time point. […] Plasma stability assay5: The degradation of human or mouse plasma was assessed by monitoring the gradual reduction of the parent compound over specified time intervals (0, 3, 24, and 48 hours). […]

[3] abbreviates: female, CD1, plasma, IP 50 mg/kg.
[4] abbreviates: female, CD1, plasma, IV 3 mg/kg.
Where [5] appears, read: female, CD1, plasma, PO 50 mg/kg.

With `O=C1CCC(N2Cc3cc(Nc4noc5ccccc45)ccc3C2=O)C(=O)N1` (centres unmarked) [SJ3149], the T1/2 in series [1] (PO 50 mg/kg, 50 mg/kg) was 2.57 h. Besides, the half-life in series [1] (female, ip, 50 mg/kg, IP 50 mg/kg) is 3.08 h; in series [1] (female, iv, 3 mg/kg, IV 3 mg/kg), 0.77 h; in series [1] (female, po, 50 mg/kg, PO 50 mg/kg), roughly 3 h. For the same molecule, the AUC(0-t) was found to be 17000 ng·h/mL in series [1] (setting [3]), 1370 ng·h/mL in series [1] (setting [4]) and 2850 ng·h/mL in series [1] (setting [5]). Further, the Tmax in series [1] (setting [3]) and in series [1] (setting [5]) was 0.25 h each time. For the same molecule, the values for the bioavailability in series [1] (setting [3]) and in series [1] (setting [5]) were 74% and 12%, respectively. In addition, the Cmax in series [1] (female, CD1, plasma, IP 50 mg/kg, read-out: C0/Cmax) is 6680 ng/mL; in series [1] (female, CD1, plasma, IV 3 mg/kg, read-out: C0/Cmax (C0 back extrapolated)), 4510 ng/mL; in series [1] (female, CD1, plasma, PO 50 mg/kg, read-out: C0/Cmax), 4740 ng/mL; in series [1] (female, CD1, plasma, PO 50 mg/kg, read-out: C0/Cmax (molar)), 12.6 µM. Further, the clearance in series [1] (setting [4]) was 36.2 mL/min/kg. Moreover, in series [1] (female, CD1, plasma, IV 3 mg/kg, read-out: Vss), the Vd turned out to be 0.67 L/kg. The half-life at 10 µM in series [2] (CD-1, mouse, liver microsomes, pH 7.4, read-out: Microsome stability t1/2) was greater than 10 h.

In the case of `O=C1CCC(N2Cc3cc(Nc4noc5ccccc45)ccc3C2=O)C(=O)N1` (centres unmarked) [SJ001043149-1], in series [2], the Ke is given as -0.01 and the “t(1/2)” value is -69.12.
